Here are results for 2 molecules from patent US20160219881A1, “HERBICIDALLY ACTIVE 2-HALOGEN-4-ALKYNYL-PHENYL-PYRAZOLIDINE-DIONE OR PYRROLIDINE-DIONE DERIVATIVES” (SYNGENTA LIMITED, priority 2013, published 2016).

For assay [1], the system named is Echinochloa crus-galli (ECHCG). Put plainly: Test 1A glasshouse assay, pre-emergence herbicidal activity. The class given is in vivo. To be noted: 312 h, 250 g/ha, 13 days after application, read-out: Pre-Emergence Herbicidal Activity (% Phytotoxicity) ECHCG. Here is the method:
(§1) Seeds of a variety of test species are sown in standard soil (usually sandy soil) in pots. After cultivation for one day (pre-emergence) or after 8 days cultivation (post-emergence) under controlled conditions in a glasshouse (at 24/16° C., day/night; 14 hours light; 65% humidity), the plants are sprayed with an aqueous spray solution derived from the formulation of the technical active ingredient (compound) in acetone/water (50:50) solution containing 0.5% Tween 20 (polyoxyethylene sorbitan monolaurate, CAS RN 9005-64-5). The test plants are then grown under controlled conditions in a glasshouse (at 24/16° C., day/night; 14 hours light; 65% humidity) and watered twice daily. 13 days after application of the test compounds, for pre- and post-emergence, the test is evaluated visually for percentage phytotoxicity to each plant (where 100%=total damage to plant; 0%=no damage to plant).
(§2) Alopecurus myosuroides (ALOMY), Setaria faberi (SETFA), Echinochloa crus-galli (ECHCG), Amaranthus retroflexus (AMARE), and Abutilon theophasti Medik. (ABUTH, common English name “velvetleaf”). Of these, Alopecurus myosuroides (ALOMY), Setaria faberi (SETFA), and Echinochloa crus-galli (ECHCG) are grassy monocotyledonous weeds. […]

Assay [2] concerns Alopecurus myosuroides (ALOMY). Described as above. Type of assay: in vivo. The following applies: 312 h, 250 g/ha, 13 days after application, read-out: Pre-Emergence Herbicidal Activity (% Phytotoxicity) ALOMY. How it is done: as §1
Alopecurus myosuroides (ALOMY), Setaria faberi (SETFA), Echinochloa crus-galli (ECHCG), Amaranthus retroflexus (AMARE), and Abutilon theophasti Medik. (ABUTH, common English name “velvetleaf”). Of these, Alopecurus myosuroides (ALOMY), Setaria faberi (SETFA), and Echinochloa crus-galli (ECHCG) are grassy monocotyledonous weeds.
(§3) Lolium perenne (LOLPE), Triticum aestivum (TRZAW, winter wheat), Alopecurus myosuroides (ALOMY), Echinochloa crus-galli (ECHCG), and Avena fatua (AVEFA). All these are grassy monocotyledonous weeds and/or (for wheat) grassy crops.

Assay [3] has as its system Alopecurus myosuroides (ALOMY). Description: Test 1A glasshouse assay, post-emergence herbicidal activity. Type of assay: in vivo. To be noted: 312 h, 250 g/ha, 13 days after application, read-out: Post-Emergence Herbicidal Activity (% Phytotoxicity) ALOMY. How it is done:
as §1, §2

The subject of assay [4] is Echinochloa crus-galli (ECHCG). The assay is described as above. Type of assay: in vivo. The following applies: 312 h, 250 g/ha, 13 days after application, read-out: Post-Emergence Herbicidal Activity (% Phytotoxicity) ECHCG. Here is the method:
as §1, §2

In assay [5] the test system is Triticum aestivum (TRZAW, winter wheat). Put plainly: Test 1A glasshouse assay, pre-emergence herbicidal activity. Type of assay: in vivo. To be noted: 312 h, 250 g/ha, 13 days after application, read-out: Pre-Emergence Herbicidal Activity (% Phytotoxicity) TRZAW. Here is the method:
as §1, §3

For assay [6], the system named is Avena fatua (AVEFA). The assay is described as above. The class given is in vivo. To be noted: 312 h, 250 g/ha, 13 days after application, read-out: Pre-Emergence Herbicidal Activity (% Phytotoxicity) AVEFA. Here is the method:
as §1, §3

In assay [7] the test system is Lolium perenne (LOLPE). Described as above. The class given is in vivo. To be noted: 312 h, 250 g/ha, 13 days after application, read-out: Pre-Emergence Herbicidal Activity (% Phytotoxicity) LOLPE. How it is done: as §1, §3
In assay [8] the test system is Avena fatua (AVEFA). Put plainly: Test 1A glasshouse assay, post-emergence herbicidal activity. The class given is in vivo. To be noted: 312 h, 250 g/ha, 13 days after application, read-out: Post-Emergence Herbicidal Activity (% Phytotoxicity) AVEFA. How it is done: as §1
(§4) Lolium perenne (LOLPE), Triticum aestivum (TRZAW, winter wheat, variety ‘Hereward’), Alopecurus myosuroides (ALOMY), Echinochloa crus-galli (ECHCG), and Avena fatua (AVEFA). All these are grassy monocotyledonous weeds and/or (for wheat) grassy crops.

Assay [9] has as its system Triticum aestivum (TRZAW, winter wheat, variety ‘Hereward’). Described as above. Type of assay: in vivo. To be noted: 312 h, 250 g/ha, 13 days after application, read-out: Post-Emergence Herbicidal Activity (% Phytotoxicity) TRZAW. Here is the method:
as §1, §4

Assay [10] has as its system Lolium perenne (LOLPE). Described as above. The class given is in vivo. To be noted: 312 h, 250 g/ha, 13 days after application, read-out: Post-Emergence Herbicidal Activity (% Phytotoxicity) LOLPE. Here is the method:
as §1, §4

Assay [11] concerns Johnsongrass (Sorghum halepense). The following applies: gibberellic acid mixed with clethodim; cited from earlier work.
The subject of assay [12] is volunteer corn. The following applies: gibberellic acid mixed with clethodim; cited from earlier work.

In the case of `CC#Cc1cc(C)c(C2C(=O)CN(Cc3ccccn3)C2=O)c(C)c1` (stereo not drawn) [Compound A48, 3-(2,6-dimethyl-4-prop-1-ynyl-phenyl)-1-(2-pyridylmethyl)pyrrolidine-2,4-dione], the inhibition at 250 g/ha was found to be 80% in assay [1]; 90% in [2]; 90% in assay [3]; 70% in assay [4]; 40% in [5]; 40% in [6]. Besides, the inhibition at 250 g/ha was found to be 80% in assay [7], 20% in [8], 30% in assay [9] and 70% in assay [10].
Regarding `C=C1C[C@]23C[C@@]1(O)CC[C@H]2[C@@]12C=C[C@H](O)[C@@](C)(C(=O)O1)[C@H]2[C@@H]3C(=O)O` [gibberellic acid], the “control and/or speed of control of Johnsongrass (Sorghum halepense)” value in [11] was “increased clethodim's control and/or speed of control”. The “control and/or speed of control of volunteer corn” value in [12] is given as “increased clethodim's control and/or speed of control”.
